Measured values from patent US8318938B2, “Trans-fused chromenoisoquinolines synthesis and methods for use” (Purdue Research Foundation, priority 2006, dated 2012).
Values joined by “and” are separate entries in the source; they are usually repeats but may differ in a detail not shown here. Identical values can stand only once. Counter-ions that a name gives are not always drawn.

Columns and labels:
[1] = molecular target: endogenous human D1-like dopamine receptor in MCF7 cells (Homo sapiens, UniProt P21728); settings: for Intrinsic Activity (% dopamine), Endogenous hD1: normalized to maximal cyclic AMP accumulation with dopamine (FIG. 3A)
endogenous human D1-like dopamine receptor in MCF7 cells, sequence (P21728 whole entry): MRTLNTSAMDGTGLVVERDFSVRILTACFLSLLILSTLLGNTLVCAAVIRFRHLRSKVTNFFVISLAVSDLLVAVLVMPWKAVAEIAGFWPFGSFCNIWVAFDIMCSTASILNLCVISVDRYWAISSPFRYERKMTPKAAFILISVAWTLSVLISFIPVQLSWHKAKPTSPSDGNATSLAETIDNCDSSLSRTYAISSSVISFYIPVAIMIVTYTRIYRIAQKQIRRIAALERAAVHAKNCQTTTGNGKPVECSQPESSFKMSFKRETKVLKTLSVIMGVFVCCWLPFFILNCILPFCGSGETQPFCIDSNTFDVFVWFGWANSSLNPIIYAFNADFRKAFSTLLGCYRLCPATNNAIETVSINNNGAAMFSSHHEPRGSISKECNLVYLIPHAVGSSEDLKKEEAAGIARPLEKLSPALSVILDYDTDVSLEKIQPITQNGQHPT
Experimental: The data presented in FIG. 2B are the mean±SEM of three independent experiments assayed in duplicate.
The data presented in FIGS. 3B-C are the mean±SEM of three independent experiments assayed in duplicate.
(§1) Cell Culture. […] Cells were grown at 37° C. in a humidified incubator with 6% CO2.
(§2) Cyclic AMP accumulation assay. Assays were performed on confluent monolayers of cells in 48-well plates. […] Cyclic AMP stimulation assays were performed on HEK D1-CRELuc or MCF7 cells by incubating the cells with ligands for 15 minutes at 37° C. Cyclic AMP inhibition assays were performed on HEK-α2C cells in the presence 30 μM forskolin to stimulate cyclic AMP formation. All assays were performed in the presence of 500 μM isobutylmethylxanthine (IBMX) and terminated with ice cold 3% trichloroacetic acid.
(§3) Cyclic AMP binding assay. […] Briefly, cellular lysate (15-20 μL) was added to cyclic AMP binding buffer (100 mM Tris-HCl, pH 7.4, 100 mM NaCl, 5 mM EDTA) in assay tubes containing 1 nM final concentration [^3H]cyclic AMP and bovine adrenal gland cyclic AMP binding protein (100-150 μg in 500 μl binding buffer). The binding assay was incubated on ice at 4° C. for 2-4 hours and terminated by harvesting with ice cold wash buffer (10 mM Tris, 0.9% NaCl) using a 96-well Packard Filtermate cell harvester and Millipore Multiscreen Harvest Plates (Millipore, Billerica, Mass., USA). Packard Microscint O (40 μL) was added to each well after drying. Radioactivity was counted using a Packard Topcount scintillation counter. Standard curves ranging from 0.01 to 300 pmol of cyclic AMP were used to determine the concentration of cyclic AMP in each sample. Data analysis was performed on GraphPad Prism software.

[2] = molecular target: T1, α2C adrenergic receptor (Homo sapiens, UniProt P18825); experiment: NIMH-sponsored Psychoactive Drug Screening Program affinity screen; format: binding; settings: NIMH PDSP screen
T1 construct: expressed in transfected cells; host or cells: HEK293 (HEK-α2C)
T1 sequence (P18825 1-462): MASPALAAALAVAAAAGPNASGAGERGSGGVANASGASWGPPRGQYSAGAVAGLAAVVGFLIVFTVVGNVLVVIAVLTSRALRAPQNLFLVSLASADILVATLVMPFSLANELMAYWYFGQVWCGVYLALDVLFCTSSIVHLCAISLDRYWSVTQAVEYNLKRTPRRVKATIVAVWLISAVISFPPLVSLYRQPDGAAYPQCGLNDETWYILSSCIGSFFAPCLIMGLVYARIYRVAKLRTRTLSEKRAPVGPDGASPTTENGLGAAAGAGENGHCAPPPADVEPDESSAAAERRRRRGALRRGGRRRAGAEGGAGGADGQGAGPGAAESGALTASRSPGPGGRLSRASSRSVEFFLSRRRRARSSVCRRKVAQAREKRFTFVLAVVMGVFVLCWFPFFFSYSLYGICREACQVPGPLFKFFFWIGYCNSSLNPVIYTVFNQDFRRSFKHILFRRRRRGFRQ

[3] = molecular target: human dopamine D1 receptor (Homo sapiens, UniProt P21728); experiment: Cyclic AMP accumulation in HEK cells stably expressing the human dopamine D1 receptor (cloned hD1); format: cell-based; settings: normalized to maximal cyclic AMP accumulation with dopamine
human dopamine D1 receptor, sequence (P21728 whole entry): as the sequence (P21728 whole entry) above
Experimental: Cyclic AMP accumulation assay. Assays were performed on confluent monolayers of cells in 48-well plates. […] Cyclic AMP stimulation assays were performed on HEK D1-CRELuc or MCF7 cells by incubating the cells with ligands for 15 minutes at 37° C. […] All assays were performed in the presence of 500 μM isobutylmethylxanthine (IBMX) and terminated with ice cold 3% trichloroacetic acid.

[4] = molecular target: T1, α2C adrenergic receptor; experiment: Inhibition of forskolin-stimulated cyclic AMP accumulation in HEK293 cells stably expressing the α2C receptor; format: cell-based; settings: for EC50 / Intrinsic Activity (% forskolin), α2C Adrenergic: HEK-α2C cells; for EC50: 30 μM forskolin, 15 min at 37° C.; for Intrinsic Activity (% forskolin), α2C Adrenergic: inhibition of cyclic AMP stimulated by 30 μM forskolin
Source text: The data presented have been normalized to the maximal cyclic AMP accumulation observed in the presence of forskolin alone and are the mean±SEM of three independent experiments assayed in duplicate.
Briefly, HEK D1-CreLuc cells were created by a two step process. HEK293 cells were co-transfected with the pBabe Puro and pGL-CreLuc vectors. Puromycin resistant clones, which expressed the functional cyclic AMP response element-linked luciferase reporter gene, were selected. Next, HEK-CreLuc cells were stably transfected with pcDNA3.1 (+)-D1. Clones were assayed for D1 receptor function by measuring cyclic AMP accumulation and luciferase activity. HEK-α2C cells were constructed by stable transfection with pcDNA.3(+)-α2C. G418 resistant clones were selected and assayed for α2C function by measuring inhibition of forskolin-stimulated cyclic AMP accumulation.
as §1, §2, §3

[5] = molecular target: native D1-like dopamine receptors in porcine striatal tissue (Sus scrofa, UniProt P50130); experiment: Porcine striatal cyclase assay (cyclic AMP stimulation in striatal homogenate); format: biochemical; settings: read-out: intrinsic activity in porcine striatal tissue
native D1-like dopamine receptors in porcine striatal tissue, sequence (P50130 whole entry): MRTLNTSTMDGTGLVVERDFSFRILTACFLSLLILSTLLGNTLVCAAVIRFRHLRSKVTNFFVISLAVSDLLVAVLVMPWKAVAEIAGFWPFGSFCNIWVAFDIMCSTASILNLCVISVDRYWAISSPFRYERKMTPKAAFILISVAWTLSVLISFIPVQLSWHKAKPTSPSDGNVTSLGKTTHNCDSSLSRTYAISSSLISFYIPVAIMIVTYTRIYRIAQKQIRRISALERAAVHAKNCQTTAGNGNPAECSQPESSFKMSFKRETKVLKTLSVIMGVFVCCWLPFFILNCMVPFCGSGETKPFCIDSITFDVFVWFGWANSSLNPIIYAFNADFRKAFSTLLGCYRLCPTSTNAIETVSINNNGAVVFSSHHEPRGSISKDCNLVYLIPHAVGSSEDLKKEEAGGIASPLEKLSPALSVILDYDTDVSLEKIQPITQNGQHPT
Experimental: as §3
The homogenate was centrifuged at 1,000×g for 10 min at 4° C.

Which melting point does the source give for `Cl.c1ccc2c(c1)CN[C@@H]1COc3cc4c(cc3[C@@H]21)OCO4` here?
Its melting point is 163 °C.

With `Br.Cc1ccc2c(c1)C1c3cc(O)c(O)cc3OCC1NC2` (stereo not drawn) as the molecule, how does the melting point read?
The melting point was 195 to 200 °C (dec.).

For `Cl.c1ccc2c(c1)CN[C@H]1COc3cc4c(cc3[C@H]21)OCO4`, which melting point is on record?
The melting point was 163 °C.

Which results are given for `Cl.Oc1cc2c(cc1O)C1c3ccccc3CNC1CO2` (racemic) [(±)-ODHX, 2,3-Dihydroxy-6a,7,8,12b-tetrahydro-6H-chromeno[3,4-c]isoquinoline hydrochloride]?
Intrinsic Activity (% dopamine), Endogenous hD1 [1]: 80 ± 3 % dopamine; Ki [2]: ~2 nM

Which melting point does the source give for `O=C1N[C@@H]2COc3cc4c(cc3[C@H]2c2ccsc21)OCO4` (racemic) [Example 23, (±)-Trans-9,10-methylenedioxy-5,5a,6,11b-tetrahydro-4H-chromeno[3,4-b]thieno[3,2-d]pyridin-4-one] here?
Its melting point is > 250 °C.

Which “Intrinsic Activity (% dopamine), Endogenous hD1” value [1] does the source give for `Oc1cc2c(cc1O)[C@H]1c3ccccc3CN[C@@H]1CO2` [(+)-ODHX, (+)-(6aS,12bR)-2,3-Dihydroxy-6a,7,8,12b-tetrahydro-6H-chromeno[3,4-c]isoquinoline hydrochloride] here?
Its value is 131 ± 13 % dopamine.

What about the “Intrinsic Activity (% dopamine), Cloned hD1” value ([3]; hydrochloride) of the same molecule?
Its value is 109±6 % dopamine.

And the “intrinsic activity as share of the intrinsic activity of (−)-ODHX at α2C receptor” value [4]?
The value was “ca. 50%”.

What about the EC50 [4] of the same molecule?
Its EC50 is 151 ± 25 nM.

And the “Intrinsic Activity (% forskolin), α2C Adrenergic” value (from here on “Intrinsic Activity (% forskolin)”) ([4]; hydrochloride)?
The value was 34±6 % forskolin and 34 ± 7 % forskolin.

What about the Emax [5] of the same molecule?
The Emax was 115 ± 15%.

With `Cl.Oc1cc2c(cc1O)[C@@H]1c3ccccc3CN[C@H]1CO2` [(−)-ODHX, (−)-(6aR,12bS)-2,3-Dihydroxy-6a,7,8,12b-tetrahydro-6H-chromeno[3,4-c]isoquinoline hydrochloride] as the molecule, how does the “effect alone on cyclic AMP levels” value ([1]; 10 μM alone) read?
Its value is “significant increase in cyclic AMP levels”.

And the “antagonism of dopamine- and (+)-ODHX-stimulated cyclic AMP accumulation” value ([1]; dose-response curves in presence of 10 μM (−)-ODHX (FIGS. 3B-C))?
The value was “reduced the intrinsic activity and potency of both dopamine and (+)-ODHX”.

What about the “Intrinsic Activity (% dopamine), Cloned hD1” value [3] of the same molecule?
Its value is 85 ± 6 % dopamine.

And the EC50 [4]?
The EC50 was 4.4 nM.

And the “Intrinsic Activity (% forskolin)” value [4]?
Its value is 69 ± 2 % forskolin.

For `Clc1cccc(Cl)c1N=C1NCCN1` [Clonidine, reference compound], which “Intrinsic Activity (% forskolin)” value [4] is on record?
The value was 61 ± 5 % forskolin.

Which melting point does the source give for `C1=NC2COc3cc4c(cc3C2c2ccccc21)OCO4` (stereo not drawn) [Example 5, 2,3-Methylenedioxy-6a,12b-dihydro-6H-chromeno[3,4-c]isoquinoline] here?
Its melting point is 191 °C.

With `c1ccc2c(c1)CNC1COc3cc4c(cc3C21)OCO4` (stereo not drawn) [Example 6, 2,3-Methylenedioxy-6a,7,8,12b-tetrahydro-6H-chromeno[3,4-c]isoquinoline] as the molecule, how does the melting point read?
Its melting point is 188 °C.

With `Cc1ccc2c(c1)C1c3cc4c(cc3OCC1NC2=O)OCO4` (stereo not drawn) [Example 16, 2,3-methylenedioxy-11-methyl-6a,7-dihydro-6H-12bH-chromeno[3,4-c]isoquinolin-8-one] as the molecule, how does the melting point read?
The melting point was > 250 °C.
